In PubChem BioAssay AID2060340 (Molecular Pharmacology Branch, DTP, NCI, 2025):

Tested on: 349418-098-R-PDC spheroids, viability, % test/control
Test: Anticancer human tumor 349418-098-R-PDC patient-derived lung adenocarcinoma cell line growth inhibition [IpAb]
Settings: spheroids with HUVEC and MSC; for IC50: curve of first compound; for viability, T/C: stronger effect = lower value
In short: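 Spheroids of 60% malignant cells, 25% HUVEC and 15% MSC were exposed to targeted agents combined with ipatasertib or abemaciclib. Doses started at or near clinical Cmax (10 microM when unknown) and fell in half-log steps.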

[1] = second compound 0.1 µM, first compound 0.0316 µM
[2] = second compound 0.1 µM, first compound 0.1 µM
[3] = second compound 0.316 µM, first compound 0.0316 µM
[4] = second compound 0.316 µM, first compound 0.1 µM
[5] = second compound 1 µM, first compound 0.0316 µM
[6] = second compound 1 µM, first compound 0.1 µM
[7] = second compound 3.16 µM, first compound 0.0316 µM
[8] = second compound 3.16 µM, first compound 0.1 µM
[9] = second compound 10 µM, first compound 0.0316 µM
[10] = second compound 10 µM, first compound 0.1 µM

Q: `C=CC(=O)N1CCN(c2nc(=O)n(-c3c(C)ccnc3C(C)C)c3nc(-c4c(O)cccc4F)c(F)cc23)C(C)C1` (stereo not given) + CC(C)NCC(C(=O)N1CCN(c2ncnc3c2C(C)CC3O)CC1)c1ccc(Cl)cc1 was tested. Which IC50 (second compound 0.1 µM) did it give?
A: 4010 nM

Q: What about the IC50 (second compound 0.316 µM) of the same compound?
A: 1000 nM

Q: And the IC50 (second compound 1 µM)?
A: < 31.6 nM

Q: What about the IC50 (second compound 3.16 µM) of the same compound?
A: < 31.6 nM

Q: What about the IC50 (second compound 10 µM) of the same compound?
A: < 31.6 nM

Q: And the viability, T/C [1]?
A: 95.8%

Q: What about the viability, T/C [2] of the same compound?
A: 89.6%

Q: And the viability, T/C (second compound 0.1 µM, first compound 0.316 µM)?
A: 76.7%

Q: And the viability, T/C (second compound 0.1 µM, first compound 1 µM)?
A: 70.2%

Q: And the viability, T/C (second compound 0.1 µM, first compound 3.16 µM)?
A: 64.7%

Q: What about the viability, T/C (second compound 0.1 µM, first compound 10 µM) of the same compound?
A: 21.7%

Q: What about the viability, T/C [3] of the same compound?
A: 51.9%

Q: And the viability, T/C [4]?
A: 55.1%

Q: And the viability, T/C (second compound 0.316 µM, first compound 0.316 µM)?
A: 51.4%

Q: And the viability, T/C (second compound 0.316 µM, first compound 1 µM)?
A: 50.2%

Q: And the viability, T/C (second compound 0.316 µM, first compound 3.16 µM)?
A: 23.9%

Q: What about the viability, T/C (second compound 0.316 µM, first compound 10 µM) of the same compound?
A: 12.5%

Q: And the viability, T/C [5]?
A: 28.4%

Q: What about the viability, T/C [6] of the same compound?
A: 28.3%

Q: And the viability, T/C (second compound 1 µM, first compound 0.316 µM)?
A: 19.6%

Q: What about the viability, T/C (second compound 1 µM, first compound 1 µM) of the same compound?
A: 17.2%

Q: And the viability, T/C (second compound 1 µM, first compound 3.16 µM)?
A: 11.9%

Q: What about the viability, T/C (second compound 1 µM, first compound 10 µM) of the same compound?
A: 7.34%

Q: What about the viability, T/C [7] of the same compound?
A: 12.3%

Q: What about the viability, T/C [8] of the same compound?
A: 13.3%

Q: And the viability, T/C (second compound 3.16 µM, first compound 0.316 µM)?
A: 11.8%

Q: And the viability, T/C (second compound 3.16 µM, first compound 1 µM)?
A: 10%

Q: What about the viability, T/C (second compound 3.16 µM, first compound 3.16 µM) of the same compound?
A: 6.96%

Q: What about the viability, T/C (second compound 3.16 µM, first compound 10 µM) of the same compound?
A: 5.34%

Q: What about the viability, T/C [9] of the same compound?
A: 6.48%

Q: What about the viability, T/C [10] of the same compound?
A: 8.12%

Q: And the viability, T/C (second compound 10 µM, first compound 0.316 µM)?
A: 6.94%

Q: What about the viability, T/C (second compound 10 µM, first compound 1 µM) of the same compound?
A: 5.09%

Q: What about the viability, T/C (second compound 10 µM, first compound 3.16 µM) of the same compound?
A: 5.95%

Q: What about the viability, T/C (second compound 10 µM, first compound 10 µM) of the same compound?
A: 4.63%

Q: `CC(C)(C)c1cnc(CSc2cnc(NC(=O)C3CCNCC3)s2)o1` + CC(C)NCC(C(=O)N1CCN(c2ncnc3c2C(C)CC3O)CC1)c1ccc(Cl)cc1 was tested. Which IC50 (second compound 0.1 µM) did it give?
A: 40.6 nM

Q: And the IC50 (second compound 0.316 µM)?
A: < 9.49 nM

Q: And the IC50 (second compound 1 µM)?
A: < 9.49 nM

Q: What about the IC50 (second compound 3.16 µM) of the same compound?
A: < 9.49 nM

Q: And the IC50 (second compound 10 µM)?
A: < 9.49 nM

Q: What about the viability, T/C (second compound 0.1 µM, first compound 0.00949 µM) of the same compound?
A: 88.9%

Q: What about the viability, T/C (second compound 0.1 µM, first compound 0.03 µM) of the same compound?
A: 65.3%

Q: And the viability, T/C (second compound 0.1 µM, first compound 0.0949 µM)?
A: 6.84%

Q: What about the viability, T/C (second compound 0.1 µM, first compound 0.3 µM) of the same compound?
A: 2.85%

Q: What about the viability, T/C (second compound 0.1 µM, first compound 0.949 µM) of the same compound?
A: 2.98%

Q: And the viability, T/C (second compound 0.1 µM, first compound 3 µM)?
A: 2.15%

Q: What about the viability, T/C (second compound 0.316 µM, first compound 0.00949 µM) of the same compound?
A: 45.6%

Q: What about the viability, T/C (second compound 0.316 µM, first compound 0.03 µM) of the same compound?
A: 31.9%

Q: What about the viability, T/C (second compound 0.316 µM, first compound 0.0949 µM) of the same compound?
A: 5.43%

Q: And the viability, T/C (second compound 0.316 µM, first compound 0.3 µM)?
A: 2.19%

Q: And the viability, T/C (second compound 0.316 µM, first compound 0.949 µM)?
A: 2.77%

Q: What about the viability, T/C (second compound 0.316 µM, first compound 3 µM) of the same compound?
A: 1.75%

Q: And the viability, T/C (second compound 1 µM, first compound 0.00949 µM)?
A: 22.1%

Q: What about the viability, T/C (second compound 1 µM, first compound 0.03 µM) of the same compound?
A: 15.5%

Q: What about the viability, T/C (second compound 1 µM, first compound 0.0949 µM) of the same compound?
A: 3.25%

Q: And the viability, T/C (second compound 1 µM, first compound 0.3 µM)?
A: 2.27%

Q: And the viability, T/C (second compound 1 µM, first compound 0.949 µM)?
A: 2.58%

Q: And the viability, T/C (second compound 1 µM, first compound 3 µM)?
A: 2.1%

Q: What about the viability, T/C (second compound 3.16 µM, first compound 0.00949 µM) of the same compound?
A: 9.45%

Q: What about the viability, T/C (second compound 3.16 µM, first compound 0.03 µM) of the same compound?
A: 8.27%

Q: And the viability, T/C (second compound 3.16 µM, first compound 0.0949 µM)?
A: 3.2%

Q: What about the viability, T/C (second compound 3.16 µM, first compound 0.3 µM) of the same compound?
A: 2.2%

Q: What about the viability, T/C (second compound 3.16 µM, first compound 0.949 µM) of the same compound?
A: 2.72%

Q: What about the viability, T/C (second compound 3.16 µM, first compound 3 µM) of the same compound?
A: 2.4%

Q: And the viability, T/C (second compound 10 µM, first compound 0.00949 µM)?
A: 5.95%

Q: What about the viability, T/C (second compound 10 µM, first compound 0.03 µM) of the same compound?
A: 5.37%

Q: What about the viability, T/C (second compound 10 µM, first compound 0.0949 µM) of the same compound?
A: 2.11%

Q: And the viability, T/C (second compound 10 µM, first compound 0.3 µM)?
A: 1.93%

Q: What about the viability, T/C (second compound 10 µM, first compound 0.949 µM) of the same compound?
A: 2.03%

Q: What about the viability, T/C (second compound 10 µM, first compound 3 µM) of the same compound?
A: 1.53%

Q: With `Cn1ncnc1[C@H]1c2n[nH]c(=O)c3cc(F)cc(c23)N[C@@H]1c1ccc(F)cc1` + CC(C)NCC(C(=O)N1CCN(c2ncnc3c2C(C)CC3O)CC1)c1ccc(Cl)cc1 as the compound, how does the IC50 (second compound 0.1 µM) read?
A: > 100 nM

Q: What about the IC50 (second compound 0.316 µM) of the same compound?
A: 0.621 nM

Q: What about the IC50 (second compound 1 µM) of the same compound?
A: < 0.316 nM

Q: And the IC50 (second compound 3.16 µM)?
A: < 0.316 nM

Q: And the IC50 (second compound 10 µM)?
A: < 0.316 nM

Q: What about the viability, T/C (second compound 0.1 µM, first compound 0.000316 µM) of the same compound?
A: 82.5%

Q: What about the viability, T/C (second compound 0.1 µM, first compound 0.001 µM) of the same compound?
A: 80.5%

Q: What about the viability, T/C (second compound 0.1 µM, first compound 0.00316 µM) of the same compound?
A: 77.3%

Q: And the viability, T/C (second compound 0.1 µM, first compound 0.01 µM)?
A: 70%

Q: What about the viability, T/C [1] of the same compound?
A: 68.7%

Q: And the viability, T/C [2]?
A: 76.7%

Q: And the viability, T/C (second compound 0.316 µM, first compound 0.000316 µM)?
A: 52.6%

Q: And the viability, T/C (second compound 0.316 µM, first compound 0.001 µM)?
A: 48.4%

Q: And the viability, T/C (second compound 0.316 µM, first compound 0.00316 µM)?
A: 42.8%

Q: What about the viability, T/C (second compound 0.316 µM, first compound 0.01 µM) of the same compound?
A: 46.8%

Q: What about the viability, T/C [3] of the same compound?
A: 41.7%

Q: And the viability, T/C [4]?
A: 37%

Q: And the viability, T/C (second compound 1 µM, first compound 0.000316 µM)?
A: 26.4%

Q: What about the viability, T/C (second compound 1 µM, first compound 0.001 µM) of the same compound?
A: 24.1%

Q: And the viability, T/C (second compound 1 µM, first compound 0.00316 µM)?
A: 18.9%

Q: What about the viability, T/C (second compound 1 µM, first compound 0.01 µM) of the same compound?
A: 16.7%

Q: What about the viability, T/C [5] of the same compound?
A: 17.2%

Q: What about the viability, T/C [6] of the same compound?
A: 17.1%

Q: What about the viability, T/C (second compound 3.16 µM, first compound 0.000316 µM) of the same compound?
A: 13.8%

Q: And the viability, T/C (second compound 3.16 µM, first compound 0.001 µM)?
A: 15.8%

Q: What about the viability, T/C (second compound 3.16 µM, first compound 0.00316 µM) of the same compound?
A: 11.1%

Q: And the viability, T/C (second compound 3.16 µM, first compound 0.01 µM)?
A: 10.2%

Q: What about the viability, T/C [7] of the same compound?
A: 9.16%

Q: And the viability, T/C [8]?
A: 7.75%

Q: And the viability, T/C (second compound 10 µM, first compound 0.000316 µM)?
A: 9.03%

Q: What about the viability, T/C (second compound 10 µM, first compound 0.001 µM) of the same compound?
A: 7.63%

Q: What about the viability, T/C (second compound 10 µM, first compound 0.00316 µM) of the same compound?
A: 6.62%

Q: And the viability, T/C (second compound 10 µM, first compound 0.01 µM)?
A: 6.38%

Q: What about the viability, T/C [9] of the same compound?
A: 5.72%

Q: And the viability, T/C [10]?
A: 6.34%
